From patent publication US11053204B2, “Pyrimidinyloxy benzene derivatives as herbicides” (FMC Corporation, priority 2015, dated 2021)

How the values were obtained:
Assay type in all cases: in vivo
[1] = test system: sedge, umbrella (small-flower umbrella sedge, Cyperus difformis); test: Test B flooded paddy test, plant response rating; details: 250 g ai/ha; Flood; scale of 0 to 100 where 0 is no effect and 100 is complete control; 13 to 15 days
In short: (§1)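 Under a constant 3 cm flood, test compounds went directly into the paddy water. Following 13 to 15 days of greenhouse growth, treated species and controls were compared by eye.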

[2] = test system: ducksalad (Heteranthera limosa); test: Test B flooded paddy test, plant response rating; details: 250 g ai/ha; Flood; scale of 0 to 100 where 0 is no effect and 100 is complete control; 13 to 15 days
In short: as §1

rice (Oryza sativa) = test: Test B flooded paddy test, plant response rating; details: 250 g ai/ha; Flood; scale of 0 to 100 where 0 is no effect and 100 is complete control; 13 to 15 days
In short: as §1

[3] = test system: barnyardgrass (Echinochloa crus-galli); test: Test B flooded paddy test, plant response rating; details: 250 g ai/ha; Flood; scale of 0 to 100 where 0 is no effect and 100 is complete control; 13 to 15 days
In short: as §1

[4] = test system: pigweed (Amaranthus retroflexus); test: Test A preemergence, visual injury rating; details: 0 to 100 scale (0 no effect, 100 complete control)
In short: (§2)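 Pre- and postemergence greenhouse screen. Soil: loam + sand. Spray carrier: solvent mixture, non-phytotoxic, with surfactant. Post timing at 1–2 leaves, height 2–10 cm. Readout: visual injury on a 0–100 scale roughly 10 days after application, untreated plants as reference.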

[5] = test system: giant foxtail (Setaria faberii); test: Test A preemergence, visual injury rating; details: 0 to 100 scale (0 no effect, 100 complete control)
In short: as §2

[6] = test system: Italian ryegrass (Lolium multiflorum); test: Test A preemergence, visual injury rating; details: 0 to 100 scale (0 no effect, 100 complete control)
In short: as §2

[7] = test system: ragweed (common ragweed, Ambrosia elatior); test: Test A preemergence, visual injury rating; details: 0 to 100 scale (0 no effect, 100 complete control)
In short: as §2

kochia (Kochia scoparia) [8] = test: Test A preemergence, visual injury rating; details: 0 to 100 scale (0 no effect, 100 complete control)
In short: as §2

[9] = test system: barnyardgrass (Echinochloa crus-galli); test: Test A preemergence, visual injury rating; details: 0 to 100 scale (0 no effect, 100 complete control)
In short: as §2

[10] = test system: blackgrass (Alopecurus myosuroides); test: Test A postemergence, visual injury rating; details: 0 is no effect, 100 is complete control
In short: as §2

[11] = test system: pigweed (Amaranthus retroflexus); test: Test A postemergence, visual injury rating; details: 0 is no effect, 100 is complete control
In short: as §2

[12] = test system: giant foxtail (Setaria faberii); test: Test A postemergence, visual injury rating; details: 0 is no effect, 100 is complete control
In short: as §2

[13] = test system: Italian ryegrass (Lolium multiflorum); test: Test A postemergence, visual injury rating; details: 0 is no effect, 100 is complete control
In short: as §2

[14] = test system: wheat (Triticum aestivum); test: Test A postemergence, visual injury rating; details: 0 is no effect, 100 is complete control
In short: as §2

[15] = test system: ragweed (common ragweed, Ambrosia elatior); test: Test A postemergence, visual injury rating; details: 0 is no effect, 100 is complete control
In short: as §2

corn (Zea mays) = test: Test A postemergence, visual injury rating; details: 0 is no effect, 100 is complete control
In short: as §2

kochia (Kochia scoparia) [16] = test: Test A postemergence, visual injury rating; details: 0 is no effect, 100 is complete control
In short: as §2

[17] = test system: barnyardgrass (Echinochloa crus-galli); test: Test A postemergence, visual injury rating; details: 0 is no effect, 100 is complete control
In short: as §2

[18] = test system: galium (catchweed bedstraw, Galium aparine); test: Test A postemergence, visual injury rating; details: 0 is no effect, 100 is complete control
In short: as §2

SMILES	Plant response rating, Sedge, Umbrella [1]	Plant response rating, Ducksalad [2]	Plant response rating, Rice (rice (Oryza sativa))	Plant response rating, Barnyardgrass [3]	Pigweed plant response rating ([4]; 125 g ai/ha)	Pigweed plant response rating ([4]; 500 g ai/ha)	Foxtail, Giant plant response rating ([5]; 125 g ai/ha)	Foxtail, Giant plant response rating ([5]; 500 g ai/ha)	Ryegrass, Italian plant response rating ([6]; 125 g ai/ha)	Ryegrass, Italian plant response rating ([6]; 500 g ai/ha)	Ragweed plant response rating ([7]; 125 g ai/ha)	Ragweed plant response rating ([7]; 500 g ai/ha)	Kochia plant response rating (kochia (Kochia scoparia) [8]; 125 g ai/ha)	Kochia plant response rating (kochia (Kochia scoparia) [8]; 500 g ai/ha)	Barnyardgrass plant response rating ([9]; 125 g ai/ha)	Barnyardgrass plant response rating ([9]; 500 g ai/ha)	Blackgrass plant response rating (0 to 100 scale) ([10]; 125 g ai/ha)	Blackgrass plant response rating (0 to 100 scale) ([10]; 500 g ai/ha)	Pigweed plant response rating (0 to 100 scale) ([11]; 125 g ai/ha)	Pigweed plant response rating (0 to 100 scale) ([11]; 500 g ai/ha)	further results
O=C(OCC1CCCC1)c1c(Br)cccc1Oc1ncc(Cl)cn1 [Compound 6]	0	0	0	0	10	70	60	100	0	70	0	0	0	0	10	60	10	30	60	90	Foxtail, Giant plant response rating (0 to 100 scale) ([12]; 125 g ai/ha): 10; Foxtail, Giant plant response rating (0 to 100 scale) ([12]; 500 g ai/ha): 50; Ryegrass, Italian plant response rating (0 to 100 scale) ([13]; 125 g ai/ha): 0; Ryegrass, Italian plant response rating (0 to 100 scale) ([13]; 500 g ai/ha): 40; Wheat plant response rating (0 to 100 scale) ([14]; 125 g ai/ha): 0; Wheat plant response rating (0 to 100 scale) ([14]; 500 g ai/ha): 10; Ragweed plant response rating (0 to 100 scale) ([15]; 125 g ai/ha): 10; Ragweed plant response rating (0 to 100 scale) ([15]; 500 g ai/ha): 30; Corn plant response rating (0 to 100 scale) (corn (Zea mays); 125 g ai/ha): 0; Corn plant response rating (0 to 100 scale) (corn (Zea mays); 500 g ai/ha): 10; Kochia plant response rating (0 to 100 scale) (kochia (Kochia scoparia) [16]; 125 g ai/ha): 40; Kochia plant response rating (0 to 100 scale) (kochia (Kochia scoparia) [16]; 500 g ai/ha): 90; Barnyardgrass plant response rating (0 to 100 scale) ([17]; 125 g ai/ha): 10; Barnyardgrass plant response rating (0 to 100 scale) ([17]; 500 g ai/ha): 40; Galium plant response rating (0 to 100 scale) ([18]; 125 g ai/ha): 60; Galium plant response rating (0 to 100 scale) ([18]; 500 g ai/ha): 90
O=C(OCC1CCC1)c1c(Br)cccc1Oc1ncc(Cl)cn1 [Compound 8]	70	0	0	0	10	60	100	100	0	30	0	0	0	0	30	100	0	20	50	90	Foxtail, Giant plant response rating (0 to 100 scale) ([12]; 125 g ai/ha): 30; Foxtail, Giant plant response rating (0 to 100 scale) ([12]; 500 g ai/ha): 60; Ryegrass, Italian plant response rating (0 to 100 scale) ([13]; 125 g ai/ha): 0; Ryegrass, Italian plant response rating (0 to 100 scale) ([13]; 500 g ai/ha): 30; Wheat plant response rating (0 to 100 scale) ([14]; 125 g ai/ha): 0; Wheat plant response rating (0 to 100 scale) ([14]; 500 g ai/ha): 0; Ragweed plant response rating (0 to 100 scale) ([15]; 125 g ai/ha): 10; Ragweed plant response rating (0 to 100 scale) ([15]; 500 g ai/ha): 40; Corn plant response rating (0 to 100 scale) (corn (Zea mays); 125 g ai/ha): 0; Corn plant response rating (0 to 100 scale) (corn (Zea mays); 500 g ai/ha): 20; Kochia plant response rating (0 to 100 scale) (kochia (Kochia scoparia) [16]; 125 g ai/ha): 40; Kochia plant response rating (0 to 100 scale) (kochia (Kochia scoparia) [16]; 500 g ai/ha): 80; Barnyardgrass plant response rating (0 to 100 scale) ([17]; 125 g ai/ha): 10; Barnyardgrass plant response rating (0 to 100 scale) ([17]; 500 g ai/ha): 40; Galium plant response rating (0 to 100 scale) ([18]; 125 g ai/ha): 60; Galium plant response rating (0 to 100 scale) ([18]; 500 g ai/ha): 90
O=C(OCC1CC1(F)F)c1c(Br)cccc1Oc1ncc(Cl)cn1 (stereo not drawn) [Compound 10]	80	80	0	0	100	100	100	100	10	30	0	0	90	100	40	100	20	90	90	100	Foxtail, Giant plant response rating (0 to 100 scale) ([12]; 125 g ai/ha): 30; Foxtail, Giant plant response rating (0 to 100 scale) ([12]; 500 g ai/ha): 100; Ryegrass, Italian plant response rating (0 to 100 scale) ([13]; 125 g ai/ha): 10; Ryegrass, Italian plant response rating (0 to 100 scale) ([13]; 500 g ai/ha): 60; Wheat plant response rating (0 to 100 scale) ([14]; 125 g ai/ha): 0; Wheat plant response rating (0 to 100 scale) ([14]; 500 g ai/ha): 40; Ragweed plant response rating (0 to 100 scale) ([15]; 125 g ai/ha): 10; Ragweed plant response rating (0 to 100 scale) ([15]; 500 g ai/ha): 50; Corn plant response rating (0 to 100 scale) (corn (Zea mays); 125 g ai/ha): 10; Corn plant response rating (0 to 100 scale) (corn (Zea mays); 500 g ai/ha): 60; Kochia plant response rating (0 to 100 scale) (kochia (Kochia scoparia) [16]; 125 g ai/ha): 90; Kochia plant response rating (0 to 100 scale) (kochia (Kochia scoparia) [16]; 500 g ai/ha): 100; Barnyardgrass plant response rating (0 to 100 scale) ([17]; 125 g ai/ha): 20; Barnyardgrass plant response rating (0 to 100 scale) ([17]; 500 g ai/ha): 100; Galium plant response rating (0 to 100 scale) ([18]; 125 g ai/ha): 100; Galium plant response rating (0 to 100 scale) ([18]; 500 g ai/ha): 100
CC(C)=CCOC(=O)c1c(Br)cccc1Oc1ncc(Cl)cn1 [Compound 11]	0	0	0	0	0	20	40	100	0	0	0	0	0	0	0	30	0	20	10	60	Foxtail, Giant plant response rating (0 to 100 scale) ([12]; 125 g ai/ha): 20; Foxtail, Giant plant response rating (0 to 100 scale) ([12]; 500 g ai/ha): 20; Ryegrass, Italian plant response rating (0 to 100 scale) ([13]; 125 g ai/ha): 0; Ryegrass, Italian plant response rating (0 to 100 scale) ([13]; 500 g ai/ha): 0; Wheat plant response rating (0 to 100 scale) ([14]; 125 g ai/ha): 0; Wheat plant response rating (0 to 100 scale) ([14]; 500 g ai/ha): 0; Ragweed plant response rating (0 to 100 scale) ([15]; 125 g ai/ha): 0; Ragweed plant response rating (0 to 100 scale) ([15]; 500 g ai/ha): 0; Corn plant response rating (0 to 100 scale) (corn (Zea mays); 125 g ai/ha): 0; Corn plant response rating (0 to 100 scale) (corn (Zea mays); 500 g ai/ha): 10; Kochia plant response rating (0 to 100 scale) (kochia (Kochia scoparia) [16]; 125 g ai/ha): 0; Kochia plant response rating (0 to 100 scale) (kochia (Kochia scoparia) [16]; 500 g ai/ha): 40; Barnyardgrass plant response rating (0 to 100 scale) ([17]; 125 g ai/ha): 10; Barnyardgrass plant response rating (0 to 100 scale) ([17]; 500 g ai/ha): 20; Galium plant response rating (0 to 100 scale) ([18]; 125 g ai/ha): 10; Galium plant response rating (0 to 100 scale) ([18]; 500 g ai/ha): 20
